In patent US20200384072A1, “THERAPY OF IONIZING RADIATION-INDUCED DISORDERS” (SCK-CEN, priority 2019, published 2020):

What was measured:
TIME cells [1] = test: Intracellular ROS, CM-H2DCFDA IncuCyte live cell imaging, TIME cells; type: cell-based, human; conditions: 100 μM TAT-Gap19, 0.1 Gy, 45 min p.i.
Description: In order to further assess intracellular ROS production, IncuCyte live cell imaging was used to have fast imaging in large number of replicates over multiple time points. TICAE and TIME cells were seeded in 96-well plate in 16 replicates at a density of 10000 cells/well. Three days later, cells reached 100% confluence. At 30 minutes before irradiation, a fresh MesoEndo Cell Growth Medium without phenol red (Sigma-Aldrich Co. LCC, Diegem, Belgium) supplemented with 10 μmol/L of the CM-H2DCFDA dye (Sigma-Aldrich Co. LCC, Diegem, Belgium) was added to the cells, with or without 100 μM TAT-Gap19 (Genosphere Biotechnologies, Paris, France). Fluorescence signals were measured at 45 min, 2 h and 3 h after irradiation (CM-H2DCFDA dye became saturated due to photoactivaton, and leaked outside the cells after this time) using the IncuCyte ZOOM® system (Essen BioScience, Ann Arbor, Mich., USA), 10× objective and FITC filter. […] Images were analysed making use of the software package provided by the manufacturer; we used a training set of images from different doses to define the image processing procedure. The so called Top-Hat background subtraction method was applied by measuring the radius of the fluorescence object (30 μm), and adjust a threshold of 1.5 (above the local background fluorescent intensity level), as described in IncuCyte™ Background Fluorescence Technical Note. […]

TICAE cells = test: Senescence-associated β-galactosidase CPRG assay, TICAE cells; type: cell-based, human
Description: TICAE and TIME cells were seeded in 96 well plates at a density of 10000 cells/well in 16 replicates. Three days after, cells were at 100% confluent. At 30 minutes before X-ray exposure, the cells were refreshed with 150 μl medium alone or with medium supplemented with 100 μM TAT-Gap19 (Genosphere Biotechnologies, Paris, France). For 7 d and 9 d post irradiation experiments, the medium was refreshed once, while for 14 d post irradiation experiment the medium was refreshed twice with 200 μl medium alone or with medium supplemented with 100 μM TAT-Gap19. At 7, 9 and 14 days post irradiation, cell number was determined using an Incucyte® ZOOM life cell analysis system and related software (Essen Bioscience, Hertfordshire, United Kingdom). Afterwards, the senescence associated β-galactosidase activity in the cells was determined using the chlorophenol red β-D-galactopyranoside (CPRG) assay as described previously. The cells were washed with PBS and lysed using M-PER™ buffer (Thermo Fisher Scientific, Asse, Belgium). Subsequently, 1×CPRG substrate (2 mM Chloropenol Red β-D-galactopyranoside in CPRG assay buffer containing 50 mM KPO4, 1 mM MgCl2, pH 6) (Sigma-Aldrich, Overijse, Belgium) was added to each well and the plates incubated for 18 h at 37° C. without CO2. A CLARIOstar® microplate reader (BMG Labtech, Temse, Belgium) was used to measure the absorbance at 570 nm.

TIME cells [2] = test: IGFBP-7 and GDF-15 multiplex-based assays, TIME cells; type: cell-based, human; conditions: 7 d p.i.
Description: TICAE and TIME cells were seeded in a 6-well plate at a density of 2.5×10^5 cells/well in 5 to 6 biological replicates. Two to three days later, cells reached 100% confluence. At 30 minutes before X-ray exposure, cells were refreshed with medium with or without 100 μM TAT-Gap19 (Genosphere Biotechnologies, Paris, France). At 24 h, 48 h, 72 h and 7 d after irradiation, the supernatant was collected. Medium was changed only for the 7 d time point experiment at the fourth day with fresh medium alone or with medium supplemented with 100 μM TAT-Gap19. For the simultaneous detection of multiple cytokines in the supernatants, the Magnetic Luminex® Assay (R&D systems, Minneapolis, […]) was used following manufacturer's instructions. Briefly, supernatants, standards and microparticles were incubated into a 96-well plate which was pre-coated with cytokine-specific antibodies. The immobilized antibodies were able to bind the cytokines of interest after 2 h incubation, then the plate was washed and incubation with a biotinylated antibody cocktail specific to the cytokines of interest was performed for 1 h. A second wash was performed to remove the unbound biotinylated antibodies. Further, a streptavidin-phycoerythrin conjugate was added to each well to bind to the biotinylated antibodies. After a final wash, the microparticles were resuspended in buffer and read using the Luminex® MAGPIX Analyzer (R&D systems, Minneapolis, […]).

RBE4 cells = test: γ-H2AX counts after local 3×3 mm X-ray irradiation (irradiated and bystander zones), RBE4 cells; type: cell-based, rat; conditions: 1 Gy, 3 h post-irradiation, Cbx 50 μM, Gap26 161 μM, TAT-Gap19 200 μM, Xestospongin C 5 μM
Description: A defined area of the cell culture dishes were exposed to X-rays (1Gy or 20 Gy) by using a small animal radiation research platform (SARRP, Xstrahl, 220 kV, 13 mA), making use of a 3×3 mm collimator. Whole dish irradiation was done using a 10×10 cm broad-beam collimator, while localized Irradiation was performed with a 3×3 mm collimator. A Gafchromic RTQA2 film, with a sensitivity of 0.02 Gy, was placed underneath the cell dishes in order to delineate the irradiated zone.
Cells were fixed for 25 min with 4% formaldehyde (VWR) and blocked for 30 min with blocking buffer (5% normal goat serum, 1% bovine serum albumin (BSA), 0.2% Triton X-100 in PBS D+). Overnight incubation with primary antibody (1/500 anti-γ-H2AX in dilution buffer, 1/10 blocking buffer in PBS D+) was followed by a 1 h incubation with 1/400 XX-biotin-goat-anti-mouse antibody in dilution buffer, followed by a 1 h incubation with 1/400 streptavidin-alexa488 in PBS D+. Nuclei were stained with 1 μg/mL DAPI in PBS D+ for 10 min and cells were kept in PBS D+ supplemented with NaN3 at 4° C. All steps except the overnight incubation which was carried out at 4° C., were carried out at room temperature and cell cultures were rinsed thoroughly with PBS D+ between all incubation steps. Imaging was performed with an automated BD Pathway 435 imaging system (10× objective, 10×10 montage resulting in an overall image size of 8.5×6.5 mm). We then quantified the number of γ-H2AX-foci positive nuclei in the directly irradiated and bystander areas and expressed the count as a percentage relative to the number of nuclei and subtracted the percentage of background γ-H2AX signal in non-irradiated paired control cultures for each experiment. For counting γ-H2AX foci, images were thresholded to remove background pixel noise below the foci level. Where applicable, results were normalized against vehicle (bar charts with a 100% vehicle bar without statistical variability or a horizontal line).

mice liver = conditions: mice treated with thioacetamide to induce liver fibrosis; cited from earlier work

For “TAT-Gap19: connexin mimetic peptide, amino-acids 128-136 of the CL of Cx43 (SEQ ID NO: 2), Gap19 linked to TAT sequence; Cx43 hemichannel inhibitor (YGRKKRRQRRRKQIEIKKFK)”, the “ROS production (IncuCyte)” value (TIME cells [1]) was “reduced ROS production only significantly for the 0.1 Gy dose”, the “SA β-gal activity” value (TICAE cells; 100 μM TAT-Gap19, 0 Gy and 5 Gy, 9 d p.i.) was “significantly reduced SA β-gal activity” and the “SA β-gal activity (radiation responses)” value (TICAE cells; 100 μM TAT-Gap19, 0.1 Gy and 5 Gy, 14 d p.i.) was “significantly inhibited these responses”. For the same substance, the “SA β-gal activity” value (TICAE cells; 100 μM TAT-Gap19, control, 0.1 Gy and 5 Gy, 7 d p.i.) was “significantly reduced SA β-gal activity”, the GDF-15 (TIME cells [2]; 100 μM TAT-Gap19, 0, 0.1 and 5 Gy) was “significantly inhibited these responses in all treated conditions” and the IGFBP-7 control readout (TIME cells [2]; 100 μM TAT-Gap19, 0 Gy control) was “increased”. For the same substance, the IGFBP-7 (TIME cells [2]; 100 μM TAT-Gap19, 0.1 Gy) was “acted in a significantly inhibitory way”, the “IGFBP-7 (radiation-induced increase)” value (TIME cells [2]; 100 μM TAT-Gap19, 5 Gy) was “not inhibited” and the “γ-H2AX counts in the bystander zone (normalized to vehicle)” value (RBE4 cells) was “significantly inhibited”. For the same substance, the “γ-H2AX counts in the irradiated zone (normalized to vehicle)” value (RBE4 cells) was “significantly inhibited” and the “SOD activity in liver” value (mice liver) was “increased SOD activity”.
